Assay results: PubChem BioAssay AID1205 (EPA DSSTox, 2008)
Activity calls are given as the source filed them.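 How the source made its calls: active means tumour findings in long-term animal cancer tests in more than one sex, species or organ; inactive means no tumour finding and more than one negative test.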

Test: DSSTox (CPDBAS) Carcinogenic Potency Database Summary MultiCellCall Results
Conditions: animal carcinogenicity bioassays, multi-cell call summary
In short: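 ActivityScore sums 50 for multispecies, 30 for multisex and 20 for multisite positivity. Based on the most positive experiment per sex-species across standardised chronic rodent and other animal cancer tests.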
In the case of `O=P(O)(OCC(Br)CBr)OCC(Br)CBr` (configuration not stated), the outcome is reported as “active; multisite active; multisex active”.
For `CCCCN(CCCC)N=O`, the outcome was “active; multisite active; multispecies active”.
With `CC(=O)C(N=Nc1ccc(-c2ccc(N=NC(C(C)=O)C(=O)Nc3ccccc3)c(Cl)c2)cc1Cl)C(=O)Nc1ccccc1` (configuration not stated) the outcome was “inactive; multisex inactive; multispecies inactive”.
For `CC(C)(CO)CCCCCCC(C)(C)CO`, the outcome was “inactive; multisex inactive”.
For `CNC(=O)O/N=C(\SC)C(=O)N(C)C`, the outcome was “inactive; multisex inactive; multispecies inactive”.
In the case of `CNNCc1ccc(C(=O)NC(C)C)cc1`, the outcome is reported as “active; multisite active; multisex active; multispecies active”.
For `C/[N+]([O-])=N/CO[C@@H]1O[C@H](CO)[C@@H](O)[C@H](O)[C@H]1O`, the outcome was “active; multisite active; multispecies active”.
For `Nc1ncc([N+](=O)[O-])s1`, the outcome was “active; multisite active”.
With `COc1cc(-c2ccc(N)c(OC)c2)ccc1N` the outcome was “active; multisite active; multisex active; multispecies active”.
For `O=C1O[C@H]([C@@H](O)CO)C(O)=C1O`, the outcome was “inactive; multisex inactive; multispecies inactive”.
For `O=C1C(Cl)=C(Cl)C(=O)C(Cl)=C1Cl`, the outcome was “inactive; multisex inactive”.
In the case of `C#CC(OC(N)=O)(c1ccccc1)c1ccc(Cl)cc1` (configuration not stated), the outcome is reported as “active; multisite active”.
With `Cc1cc(O)c(C(C)(C)C)cc1Sc1cc(C(C)(C)C)c(O)cc1C` the outcome was “inactive; multisex inactive; multispecies inactive”.
For `C#C[C@]1(OC(C)=O)CC[C@H]2[C@@H]3CCC4=C[C@@H](OC(C)=O)CC[C@@H]4[C@H]3CC[C@@]21C`, the outcome was “inactive; multispecies inactive”.
With `Nc1ccc(Nc2ccccc2)cc1` the outcome was “inactive; multisex inactive; multispecies inactive”.
In the case of `CCCCC1C(=O)N(c2ccccc2)N(c2ccccc2)C1=O`, the outcome is reported as “active; multisite active; multisex active; multispecies active”.
For `C/C=N/N(C)C=O`, the outcome was “active; multisite active; multisex active”.
For `CC(=O)[O][Hg][c]1ccccc1`, the outcome was “inactive; multisex inactive”.
For `CCCCC(CC)COC(=O)c1ccccc1C(=O)OCC(CC)CCCC` (configuration not stated), the outcome was “active; multisex active; multispecies active”.
For `CBr`, the outcome was “inactive; multisex inactive; multispecies inactive”.
For `CCBr`, the outcome was “active; multisite active; multisex active; multispecies active”.
With `Cc1ccc(Cl)cc1N` the outcome was “active; multisite active; multisex active”.
With `NC(=O)OCC(COC(N)=O)c1ccccc1` the outcome was “active; multisite active; multisex active; multispecies active”.
With `CC(=O)N(C(C)=O)c1cccc2c1Cc1ccccc1-2` the outcome was “active; multisite active”.
In the case of `[C-]1=CC=CC1.[C-]1=CC=CC1.[Cl-].[Cl-].[Ti+4]`, the outcome is reported as “inactive; multisex inactive”.
For `Cc1cccc(OCC(O)CNC(C)(C)C)c1C` (configuration not stated), the outcome was “inactive; multisex inactive”.
For `Nc1ccc(Oc2ccc(Cl)cc2)cc1`, the outcome was “active; multisite active; multisex active; multispecies active”.
For `NNc1nc(-c2ccc([N+](=O)[O-])o2)cs1`, the outcome was “active; multisite active; multispecies active”.
With `CCCCCCCCCCCN(C)N=O` the outcome was “active; multisite active”.
For `CNc1ccc(N(CCO)CCO)cc1[N+](=O)[O-]`, the outcome was “active; multisite active; multisex active; multispecies active”.
For `NNCCc1ccccc1`, the outcome was “active; multisite active”.
With `CC(=O)CN(C)N=O` the outcome was “active; multisite active; multisex active”.
For `O=S1(=O)CC=CC1`, the outcome was “inactive; multisex inactive; multispecies inactive”.
With `CCCCN(N)CCCC` the outcome was “active; multisite active; multisex active”.
With `COc1ccc(O)cc1` the outcome was “active; multisex active”.
In the case of `CC(=O)C(N=Nc1ccc(Cl)cc1Cl)C(=O)Nc1ccc(-c2ccc(NC(=O)C(N=Nc3ccc(Cl)cc3Cl)C(C)=O)c(C)c2)cc1C` (configuration not stated), the outcome is reported as “inactive; multispecies inactive”.
In the case of `CN(C)c1ccc(Cc2ccc(N(C)C)cc2)cc1`, the outcome is reported as “active; multisite active; multisex active; multispecies active”.
With `O=c1cc(CO)occ1O` the outcome was “active; multisex active”.
For `Nc1ccc(Cc2ccc(N)cc2)cc1`, the outcome was “active; multisite active; multisex active; multispecies active”.
For `CCCCOC(=O)c1ccc(O)cc1`, the outcome was “inactive; multisex inactive”.
For `CCCCCCCCCc1ccc(OCCOCCO)cc1`, the outcome was “inactive; multispecies inactive”.
With `CN(C)CCN(Cc1cccs1)c1ccccc1` the outcome was “inactive; multisex inactive”.
For `CCN(CC(F)(F)F)N=O`, the outcome was “active; multisite active”.
In the case of `CC(C)C(C(=O)OC(C#N)c1cccc(Oc2ccccc2)c1)c1ccc(Cl)cc1` (configuration not stated), the outcome is reported as “inactive; multisex inactive; multispecies inactive”.
With `NC(N)=NC(N)=NCCc1ccccc1` the outcome was “inactive; multisex inactive; multispecies inactive”.
In the case of `CCC[N+](=O)[O-]`, the outcome is reported as “inactive; multisex inactive”.
With `C=COC(N)=O` the outcome was “active; multisite active; multisex active”.
In the case of `Cc1cc(Cc2cc(C)cc(C(C)(C)C)c2O)c(O)c(C(C)(C)C)c1`, the outcome is reported as “inactive; multisex inactive”.
In the case of `CCOC(=O)C(C)(C)Oc1ccc(Cl)cc1`, the outcome is reported as “active; multisite active”.
In the case of `Nc1ccc(-c2ccc(F)cc2)cc1`, the outcome is reported as “active; multisex active”.
In the case of `CC(=O)OC/C=C(\C)CCC=C(C)C`, the outcome is reported as “inactive; multisex inactive; multispecies inactive”.
With `CCCCCCCCCCC(C)c1ccc(S(=O)(=O)O)cc1` (configuration not stated) the outcome was “inactive; multisex inactive”.
For `O=NN1CCCCC1`, the outcome was “active; multisite active; multisex active; multispecies active”.
For `O=NN1CCCN(N=O)CC1`, the outcome was “active; multisite active”.
With `O=C/C=C/c1ccccc1` the outcome was “inactive; multisex inactive; multispecies inactive”.
With `CN(N=O)C(N)=O` the outcome was “active; multisite active; multispecies active”.
In the case of `ClC(Cl)(Cl)Cl`, the outcome is reported as “active; multisite active; multisex active; multispecies active”.
With `c1ccc2occc2c1` the outcome was “active; multisite active; multisex active; multispecies active”.
For `COC(=O)c1ccc(C(=O)OC)cc1`, the outcome was “inactive; multisex inactive; multispecies inactive”.
With `NC(=O)Cc1cccc2ccccc12` the outcome was “inactive; multisex inactive”.
In the case of `Nc1ccc2ccccc2c1`, the outcome is reported as “active; multisite active; multisex active; multispecies active”.
In the case of `Nc1c(Cl)cc(Cl)cc1Cl`, the outcome is reported as “active; multisite active”.
For `CCCN(N=O)C(N)=O`, the outcome was “active; multisex active”.
In the case of `O=C1NS(=O)(=O)c2ccccc21`, the outcome is reported as “inactive; multisex inactive; multispecies inactive”.
In the case of `OB(O)O`, the outcome is reported as “inactive; multisex inactive”.
For `COP(=S)(OC)Oc1ccc([N+](=O)[O-])cc1`, the outcome was “inactive; multisex inactive; multispecies inactive”.
For `C1CNCCN1`, the outcome was “inactive; multisex inactive”.
For `CC(C)=CCl`, the outcome was “active; multisite active; multisex active; multispecies active”.
For `CCCCCCCCCCCCN=C(N)N`, the outcome was “inactive; multisex inactive”.
For `FC(F)(F)CCl`, the outcome was “active; multisite active; multisex active”.
For `COc1cc2c(c3oc4cccc(O)c4c(=O)c13)C1C=COC1O2` (configuration not stated), the outcome was “active; multisite active; multisex active; multispecies active”.
For `O=[N+]([O-])c1cc(N(CCO)CCO)ccc1NCCO`, the outcome was “inactive; multisex inactive; multispecies inactive”.
In the case of `CCCCN(CCCC)C(=S)[S-].CCCCN(CCCC)C(=S)[S-].[Ni+2]`, the outcome is reported as “inactive; multisex inactive”.
In the case of `ClC#CCl`, the outcome is reported as “active; multisite active; multisex active; multispecies active”.
In the case of `Cc1ccc(N=C=O)cc1N=C=O`, the outcome is reported as “active; multisite active; multisex active; multispecies active”.
With `C=CCN(CC=C)N=O` the outcome was “active; multisex active; multispecies active”.
In the case of `O=NN1CCCCCC1`, the outcome is reported as “active; multisite active; multisex active”.
In the case of `ClC1C2(Cl)C3C4C5OC5C5C4C1(Cl)C(Cl)(C53)C2(Cl)Cl` (configuration not stated), the outcome is reported as “inactive; multisex inactive; multispecies inactive”.
In the case of `Cc1cccc(Nc2cc(Cl)nc(SCC(=O)NCCO)n2)c1C`, the outcome is reported as “active; multisex active; multispecies active”.
For `O=C/C=C/O`, the outcome was “active; multisite active; multisex active; multispecies active”.
With `Clc1nc(Cl)nc(Nc2ccccc2Cl)n1` the outcome was “inactive; multisex inactive; multispecies inactive”.
In the case of `CC(C)OC(=O)Nc1ccccc1`, the outcome is reported as “inactive; multisex inactive; multispecies inactive”.
With `O=CCBr` the outcome was “inactive; multisex inactive”.
For `C=CC1=C(C)C2=CC3=NC(=C(CC(=O)[O-])C4=NC(=C(C)C4=C([O-])[O-])C=c4[n-]c(c(C)c4CC)=CC1=N2)[C@@H](CCC(=O)[O-])[C@@H]3C.[Cu+2].[Na+].[Na+].[Na+]`, the outcome was “inactive; multisex inactive”.
In the case of `[Cl-].[Cl-].[Sn+2]`, the outcome is reported as “inactive; multisex inactive; multispecies inactive”.
In the case of `S=C=Nc1ccccc1`, the outcome is reported as “inactive; multisex inactive”.
With `CCCCN(N)C=O` the outcome was “active; multisite active; multisex active”.
With `ClC1=C(Cl)[C@@]2(Cl)[C@@H]3[C@@H](Cl)[C@H](Cl)C[C@@H]3C1(Cl)C2(Cl)Cl` the outcome was “active; multisex active”.
With `BrCCBr` the outcome was “active; multisite active; multisex active; multispecies active”.
For `Nc1ccc(N)c(Cl)c1`, the outcome was “inactive; multisex inactive; multispecies inactive”.
For `CNC[C@H](O)c1cccc(O)c1`, the outcome was “inactive; multisex inactive; multispecies inactive”.
In the case of `Cn1cnc([N+](=O)[O-])c1Sc1ncnc2nc[nH]c12`, the outcome is reported as “active; multisite active”.
With `O=C(NCC1CCCCN1)c1cc(OCC(F)(F)F)ccc1OCC(F)(F)F` (configuration not stated) the outcome was “inactive; multisex inactive; multispecies inactive”.
For `S=C(SN1CCOCC1)N1CCOCC1`, the outcome was “active; multisite active; multisex active”.
In the case of `FC(F)(Cl)C(F)(Cl)Cl`, the outcome is reported as “inactive; multisex inactive”.
With `CC(=O)c1ccc(S(=O)(=O)NC(=O)NC2CCCCC2)cc1` the outcome was “inactive; multisex inactive; multispecies inactive”.
With `O=[N+]([O-])c1ccc2nc[nH]c2c1` the outcome was “active; multisex active”.
With `CCOC(=O)C(O)(c1ccc(Cl)cc1)c1ccc(Cl)cc1` the outcome was “active; multisex active”.
For `CC(C)Oc1ccc(Nc2ccccc2)cc1`, the outcome was “inactive; multisex inactive”.
With `CN(CCc1ccccc1)N=O` the outcome was “active; multisite active”.
In the case of `CC(C)CON=O`, the outcome is reported as “active; multisex active; multispecies active”.
For `OCC1CO1` (configuration not stated), the outcome was “active; multisite active; multisex active; multispecies active”.
